Test results taken from PubChem BioAssay AID330 (DTP/NCI, 2004).
Values joined by “and” are separate entries in the source; they are usually repeats but may differ in a detail not shown here. Equal entries are not always repeated. Toxic doses and inconclusive results are not listed. The calls were made as follows: active = survival T/C of 150% or more; inactive = T/C below 125% in these data.

Test system: P388 leukemia ip, CD2F1 mice, survival T/C
Assay: NCI In Vivo Anticancer Drug Screen. Data for tumor model P388 Leukemia (intraperitoneal) in CD2F1 (CDF1) mice
Conditions: endpoint: median survival time, higher = longer survival
In short: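 Mice carrying the transplanted tumor received test compound or vehicle. Survival was recorded in each group, and the value is the treated-group measurement divided by that of the vehicle-treated control group.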

[1] = dose: 50.0 mg/kg/injection, schedule: Q01DX005 (ip), vehicle: Klucel (hydroxypropylcellulose) (HPC)
[2] = dose: 100.0 mg/kg/injection, schedule: Q01DX005 (ip), vehicle: Klucel (hydroxypropylcellulose) (HPC)
[3] = dose: 200.0 mg/kg/injection, schedule: Q01DX005 (ip), vehicle: Klucel (hydroxypropylcellulose) (HPC)
[4] = dose: 25.0 mg/kg/injection, schedule: Q01DX005 (ip), vehicle: Klucel (hydroxypropylcellulose) (HPC)
[5] = dose: 50.0 mg/kg/injection, schedule: Q01DX005 (ip), vehicle: saline
[6] = dose: 100.0 mg/kg/injection, schedule: Q01DX005 (ip), vehicle: saline
[7] = dose: 200.0 mg/kg/injection, schedule: Q01DX005 (ip), vehicle: saline
[8] = dose: 50.0 mg/kg/injection, schedule: Q01DX009 (ip), vehicle: Klucel (hydroxypropylcellulose) (HPC)
[9] = dose: 100.0 mg/kg/injection, schedule: Q01DX009 (ip), vehicle: Klucel (hydroxypropylcellulose) (HPC)
[10] = dose: 6.25 mg/kg/injection, schedule: Q01DX005 (ip), vehicle: Klucel (hydroxypropylcellulose) (HPC)
[11] = dose: 12.5 mg/kg/injection, schedule: Q01DX005 (ip), vehicle: Klucel (hydroxypropylcellulose) (HPC)
[12] = dose: 100.0 mg/kg/injection, schedule: Q01DX001 (ip), vehicle: saline with Tween-80
[13] = dose: 50.0 mg/kg/injection, schedule: Q01DX009 (ip), vehicle: saline with Tween-80
[14] = dose: 100.0 mg/kg/injection, schedule: Q01DX009 (ip), vehicle: saline with Tween-80
[15] = dose: 200.0 mg/kg/injection, schedule: Q01DX009 (ip), vehicle: saline with Tween-80

Measured: T/C

NC(=O)C1CC2(c3ccccn3)c3ccccc3C1c1ccccc12 (stereo unspecified)
inactive: [1] 96 % of control | [2] 90 % of control | [3] 88 % of control

CCN(CC)CCOC(=O)c1ccc(NC(=S)Nc2ccccc2)cc1
inactive: dose: 50.0 mg/kg/injection, schedule: Q01DX005 (ip), vehicle: saline with Tween-80 98 % of control | dose: 100.0 mg/kg/injection, schedule: Q01DX005 (ip), vehicle: saline with Tween-80 90 % of control

O=c1[nH]c2ccccc2c(N=Cc2ccccc2)c1-c1ccccc1
inactive: dose: 60.0 mg/kg/injection, schedule: Q01DX005 (ip), vehicle: Klucel (hydroxypropylcellulose) (HPC) 96 % of control | dose: 120.0 mg/kg/injection, schedule: Q01DX005 (ip), vehicle: Klucel (hydroxypropylcellulose) (HPC) 93 % of control | dose: 240.0 mg/kg/injection, schedule: Q01DX005 (ip), vehicle: Klucel (hydroxypropylcellulose) (HPC) 98 % of control

COc1ccn(C2OC(COC(=O)c3ccccc3)C(OC(=O)c3ccccc3)C2OC(=O)c2ccccc2)c(=O)n1 (stereo unspecified)
inactive: [4] 97 % of control | [1] 88 % of control and 93 % of control | [2] 90 % of control | [3] 92 % of control

CN(C)CCC1CC(O)CCC1(C)O (stereo unspecified)
inactive: [5] 98 % of control | [6] 100 % of control | [7] 102 % of control

ClCOc1cc(Cl)c(OCCl)cc1Cl
inactive: [8] 116 % of control | [9] 113 % of control | dose: 200.0 mg/kg/injection, schedule: Q01DX009 (ip), vehicle: Klucel (hydroxypropylcellulose) (HPC) 101 % of control

c1ccc(CN2COC3CCCCCCC32)cc1 (stereo unspecified)
inactive: [5] 104 % of control | [6] 112 % of control | [7] 114 % of control

O=C(N=Nc1c(Cl)c(O)c2ccccc2c1O)C(=O)Nc1cccc(C(F)(F)F)c1
inactive: [10] 107 % of control | [11] 107 % of control | [4] 107 % of control | [1] 98 % of control

NNc1nnnc2c1sc1ccccc12
inactive: [12] 89 % of control | dose: 400.0 mg/kg/injection, schedule: Q01DX001 (ip), vehicle: saline with Tween-80 93 % of control

c1ccc2nc3nc4ccccc4nc3nc2c1
inactive: dose: 15.0 mg/kg/injection, schedule: Q01DX009 (ip), vehicle: saline with Tween-80 92 % of control | dose: 30.0 mg/kg/injection, schedule: Q01DX009 (ip), vehicle: saline with Tween-80 114 % of control | dose: 50.0 mg/kg/injection, schedule: Q01DX005 (ip), vehicle: Klucel + Tween-80 90 % of control | [13] 103 % of control | dose: 60.0 mg/kg/injection, schedule: Q01DX009 (ip), vehicle: saline with Tween-80 111 % of control | dose: 100.0 mg/kg/injection, schedule: Q01DX005 (ip), vehicle: Klucel + Tween-80 96 % of control | [14] 113 % of control | dose: 200.0 mg/kg/injection, schedule: Q01DX005 (ip), vehicle: Klucel + Tween-80 93 % of control | [15] 107 % of control

O=C(OCC1OC(n2cnc3c(=S)nc[nH]c32)C(OC(=O)c2ccc(Cl)cc2)C1OC(=O)c1ccc(Cl)cc1)c1ccc(Cl)cc1 (stereo unspecified)
inactive: [13] 90 % of control | [14] 90 % of control | [15] 90 % of control | dose: 400.0 mg/kg/injection, schedule: Q01DX009 (ip), vehicle: saline with Tween-80 90 % of control

CCCCCCN=C(N)N/N=C(\C)c1ccc2c(c1)Cc1ccccc1-2
inactive: dose: 12.5 mg/kg/injection, schedule: Q04DX002 (ip), vehicle: saline with Tween-80 107 % of control | dose: 25.0 mg/kg/injection, schedule: Q04DX002 (ip), vehicle: saline with Tween-80 100 % of control | dose: 50.0 mg/kg/injection, schedule: Q04DX002 (ip), vehicle: saline with Tween-80 92 % of control | dose: 100.0 mg/kg/injection, schedule: Q04DX002 (ip), vehicle: saline with Tween-80 116 % of control

CCC[CH2][Sn]1([CH2]CCC)[O]C2C(OC)OC3COC(c4ccccc4)OC3C2[O]1 (stereo unspecified)
inactive: dose: 12.5 mg/kg/injection, schedule: Q04DX003 (ip), vehicle: saline 105 % of control | dose: 25.0 mg/kg/injection, schedule: Q04DX003 (ip), vehicle: saline 110 % of control | dose: 50.0 mg/kg/injection, schedule: Q04DX003 (ip), vehicle: saline 112 % of control

CCCCN1C(=O)/C(=C/c2ccc(OC)cc2)SC1=S
inactive: [13] 100 % of control | [14] 94 % of control | [15] 90 % of control

CCC12C=CCN3CCC4(c5cc(C6c7[nH]c8ccccc8c7CCN7CCCCC67)c(OC)cc5N(C)C4C(O)(C(=O)OC)C1OC(C)=O)C32 (stereo unspecified)
inactive: dose: 0.06 mg/kg/injection, schedule: Q01DX009 (ip), vehicle: Klucel (hydroxypropylcellulose) (HPC) 115 % of control | dose: 0.13 mg/kg/injection, schedule: Q01DX009 (ip), vehicle: Klucel (hydroxypropylcellulose) (HPC) 122 % of control | dose: 0.13 mg/kg/injection, schedule: Q04DX003 (ip), vehicle: water 95 % of control | dose: 0.25 mg/kg/injection, schedule: Q01DX009 (ip), vehicle: Klucel (hydroxypropylcellulose) (HPC) 123 % of control | dose: 0.25 mg/kg/injection, schedule: Q04DX003 (ip), vehicle: water 112 % of control | dose: 0.5 mg/kg/injection, schedule: Q04DX003 (ip), vehicle: water 113 % of control | dose: 0.67 mg/kg/injection, schedule: Q01DX009 (ip), vehicle: Klucel (hydroxypropylcellulose) (HPC) 103 % of control | dose: 1.0 mg/kg/injection, schedule: Q04DX003 (ip), vehicle: water 103 % of control | dose: 1.5 mg/kg/injection, schedule: Q01DX009 (ip), vehicle: Klucel (hydroxypropylcellulose) (HPC) 105 % of control | dose: 2.0 mg/kg/injection, schedule: Q04DX003 (ip), vehicle: water 91 % of control

Cc1c(O)c(=O)ccn1C1OC(CO)C(O)C1O (stereo unspecified)
inactive: dose: 25.0 mg/kg/injection, schedule: Q01DX005 (ip), vehicle: saline 99 % of control | [5] 104 % of control | [6] 99 % of control | [7] 104 % of control | dose: 400.0 mg/kg/injection, schedule: Q01DX005 (ip), vehicle: saline 105 % of control

C=C(C)C(=NC(C)(C)C)N(C(C)C)C(C)C
inactive: [11] 102 % of control | dose: 12.5 mg/kg/injection, schedule: Q01DX009 (ip), vehicle: saline with Tween-80 89 % of control | dose: 12.5 mg/kg/injection, schedule: Q01DX009 (ip), vehicle: saline 102 % of control | [4] 96 % of control | dose: 25.0 mg/kg/injection, schedule: Q01DX009 (ip), vehicle: saline with Tween-80 97 % of control | dose: 25.0 mg/kg/injection, schedule: Q01DX009 (ip), vehicle: saline 101 % of control | [1] 98 % of control | [13] 100 % of control and 120 % of control | [14] 108 % of control

CC1CC=CC(=O)CC1 (stereo unspecified)
inactive: [8] 112 % of control | [9] 117 % of control

Nc1nsc(Cl)n1
inactive: dose: 25.0 mg/kg/injection, schedule: Q01DX001 (ip), vehicle: saline with Tween-80 97 % of control | dose: 50.0 mg/kg/injection, schedule: Q01DX001 (ip), vehicle: saline with Tween-80 106 % of control | [12] 99 % of control

CC(C)c1ccc2c[n+]3ccccc3cc2c1
inactive: [10] 100 % of control and 108 % of control | [11] 106 % of control and 112 % of control
